This is an account of results in patent US9221773B2, “Benzamide derivatives” (The Translational Genomics Research Institute, priority 2009, dated 2015).

What all share (type): cell-based
The test system of one experiment is SKOV3 cell line. Nature of the experiment: CellTiter-Blue cell viability assay, single agent, SKOV3. The following applies: Homo sapiens, SK-OV-3, SKOV3 ovarian cancer cells, 72 hours treatment. An excerpt:
(§1) Cell viability in the presence of varying concentrations of the above listed compounds at different time points was used to assess cytotoxicity and the effect of the compounds on cell proliferation. The SKOV3 cell line was originally isolated in 1973 from the ascitic fluid of a patient with an ovarian cancer. SKOV3 is a hypodiploid human cell line. SKOV3 cells are resistant to tumor necrosis factor and to several cytotoxic drugs including diphtheria toxin, cis-platinum and adriamycin. The A2780 cell line is a human ovarian adenocarcinoma cell line originally derived from a biopsy from an untreated patient. The A2780/CP cell line is a line derived from the A2780 cell line selected for resistance to cis-platinum.
(§2) Cell viability was measured by the CellTiter-Blue® cell viability assay Promega (Madison, Wis.). This procedure measures the conversion of the indicator dye (resazurin) to resorufin, an indicator of cell viability. Following treatment, growth media was removed and cells were incubated with 20 μl of CellTiter-Blue® Reagent and growth media for 1-4 hours at 37° C. Fluorescence values were measured at 535/590 nm using a Beckman-Coulter DTX-880 microplate reader.
(§3) Cells were grown to 70% confluency, trypsinized, counted, and seeded in 96 well flat-bottom plates at a final concentration of 2.5×10^3-5×10^3 cells/well (Day 0). Cells were allowed to incubate in growth media for 24 hours to allow for maximum adhesion. Treatment with the test agents or standard agents began on Day 1 and continued for 72 hours. At the 72 hour timepoint, treatment containing media was removed. Viable cell numbers are quantified by the CellTiter-Blue® cell viability assay as described above. Experiments were repeated at least twice with the same concentrations to determine growth inhibitory activity. Results from these studies were used to calculate an IC50 value (concentration of drug that inhibits cell growth by 50 percent of control) for each compound.
(§4) For single agent and combination studies, data from each experiment was collected and expressed as % Cell Expansion using the following calculation: % Cell Expansion=(ftest/fvehicle)×100
(§5) Where ftest is the fluorescence of the tested sample, and fvehicle is the fluorescence of the vehicle in which the drug is dissolved. Dose response graphs and IC50 values were generated using Prism 4 software (GraphPad) using the following equation: […]

The subject of another experiment is A2780 cell line. Nature of the experiment: CellTiter-Blue cell viability assay, single agent, A2780. To be noted: Homo sapiens, A2780 ovarian adenocarcinoma cells, 72 hours treatment.
Source text: as §1, §2, §3, §4, §5

In the next experiment the test system is A2780/CP cell line. Nature of the experiment: CellTiter-Blue cell viability assay, single agent, A2780/CP. To be noted: Homo sapiens, A2780C/P, A2780/CP cis-platinum resistant cells, 72 hours treatment.
Source text: as §1, §2, §3, §4, §5

Regarding `CC(C)C(C(=O)Nc1ncc(C(=O)NO)s1)c1ccccc1` (stereo not shown) [Compound 1, N-hydroxy-2-(3-methyl-2-phenylbutanamido)thiazole-5-carboxamide], the IC50 with SKOV3 cell line amounted to 40 nM.

For the compound `CCC(C(=O)Nc1ncc(C(=O)NO)s1)c1ccccc1` (stereo not shown) [Compound 2, N-hydroxy-2-(2-phenylbutanamido)thiazole-5-carboxamide], the IC50 in the experiment on A2780 cell line worked out at 0.5 nM; in the experiment on A2780/CP cell line, 4 nM; in the experiment on SKOV3 cell line, 46 nM.

Regarding `O=C(NO)c1cnc(NC(=O)C2(c3ccccc3)CC2)s1` [Compound 3, N-hydroxy-2-(1-phenylcyclopropanecarboxamido)thiazole-5-carboxamide], the results for the IC50 in the experiment with A2780 cell line, in the experiment on A2780/CP cell line and in the experiment on SKOV3 cell line were 1200 nM, 7500 nM and 4100 nM, respectively.

Take `CC(C)(C(=O)Nc1ncc(C(=O)NO)s1)c1ccccc1` [Compound 4, N-hydroxy-2-(2-methyl-2-phenylpropanamido)thiazole-5-carboxamide]: the IC50 in the experiment with A2780 cell line was 900 nM; with A2780/CP cell line it was 7500 nM; with SKOV3 cell line it was 1300 nM.

In the case of `O=C(Cc1ccccc1)Nc1ncc(C(=O)NO)s1` [Compound 5, N-hydroxy-2-(2-phenylacetamido)thiazole-5-carboxamide], the IC50 with A2780 cell line is 300 nM; with A2780/CP cell line, 1600 nM; with SKOV3 cell line, 2100 nM.

For the compound `O=C(CCc1ccccc1)Nc1ncc(C(=O)NO)s1` [Compound 6, N-hydroxy-2-(3-phenylpropanamido)thiazole-5-carboxamide], the IC50 in the experiment with A2780 cell line is 300 nM; in the experiment with A2780/CP cell line, 3200 nM; in the experiment on SKOV3 cell line, 500 nM.

As to `COC(C(=O)Nc1ncc(C(=O)NO)s1)c1ccccc1` (stereo not shown) [Compound 7, N-hydroxy-2-(2-methoxy-2-phenylacetamido)thiazole-5-carboxamide], the concentration for half-maximal inhibition (IC50) in the experiment on A2780 cell line stood at 40 nM; with A2780/CP cell line, 20 nM; with SKOV3 cell line, 70 nM.

As for `CCC(C(=O)Nc1ncc(C(=O)NO)s1)c1ccc(OC)cc1` (stereo not shown) [Compound 8, N-hydroxy-2-(2-(4-methoxyphenyl)butanamido)thiazole-5-carboxamide], the IC50 with A2780 cell line, in the experiment on A2780/CP cell line and in the experiment with SKOV3 cell line was below 0.1 nM each time.

In the case of `CC(C(=O)Nc1ncc(C(=O)NO)s1)c1ccccc1` (stereo not shown) [Compound 9, N-hydroxy-2-(2-phenylpropanamido)thiazole-5-carboxamide], the results for the IC50 in the experiment on A2780 cell line, in the experiment on A2780/CP cell line and in the experiment on SKOV3 cell line were 30 nM, 4.8 nM and 30 nM, respectively.

As for `CC(C)C(C(=O)Nc1ncc(C(=O)NO)s1)c1ccc(Cl)cc1` (stereo not shown) [Compound 10, 2-(2-(4-chlorophenyl)-3-methylbutanamido)-N-hydroxythiazole-5-carboxamide], the 50% inhibitory concentration (IC50) was determined as 1.7 nM in the experiment on A2780 cell line, 6.2 nM in the experiment with A2780/CP cell line and 4 nM with SKOV3 cell line.

As for `CC(C)(Cc1ccccc1)C(=O)Nc1ncc(C(=O)NO)s1` [Compound 11, 2-(2,2-dimethyl-3-phenylpropanamido)-N-hydroxythiazole-5-carboxamide], the concentration for half-maximal inhibition (IC50) stood at 3800 nM with A2780 cell line, 3800 nM in the experiment with A2780/CP cell line and 7500 nM in the experiment with SKOV3 cell line.

Regarding `CC(C)C(C(=O)Nc1ccc(C(=O)NO)cc1)c1ccc(Cl)cc1` (stereo not shown) [Compound 12, 4-(2-(4-chlorophenyl)-3-methylbutanamido)-N-hydroxybenzamide], the IC50 in the experiment on A2780 cell line was 30 nM; in the experiment on A2780/CP cell line it was 3 nM; in the experiment on SKOV3 cell line it was 40 nM.

As for `CCC(C(=O)Nc1ncc(C(=O)NO)s1)c1ccc(Br)cc1` (stereo not shown) [Compound 13, 2-(2-(4-bromophenyl)butanamido)-N-hydroxythiazole-5-carboxamide], the IC50 came to 0.5 nM with A2780 cell line, 0.08 nM in the experiment on A2780/CP cell line and 2.5 nM in the experiment on SKOV3 cell line.

As to `COCCC(C(=O)Nc1ncc(C(=O)NO)s1)c1ccccc1` (stereo not shown) [Compound 14, N-hydroxy-2-(4-methoxy-2-phenylbutanamido)thiazole-5-carboxamide], the values for the concentration for half-maximal inhibition (IC50) with A2780 cell line, with A2780/CP cell line and in the experiment on SKOV3 cell line were 2.4 nM, 8.7 nM and 80 nM, respectively.

With `CCC(C(=O)Nc1ccc(C(=O)NO)cc1)c1ccc(OC)cc1` (stereo not shown) [Compound 15, N-hydroxy-4-(2-(4-methoxyphenyl)butanamido)benzamide], the IC50 came out at 0.04 nM with A2780 cell line, 0.3 nM with A2780/CP cell line and 20 nM with SKOV3 cell line.

Turning to `CCC(C(=O)Nc1ncc(C(=O)NO)s1)c1ccc(-c2ccccc2)cc1` (stereo not shown) [Compound 17, 2-(2-(biphenyl-4-yl)butanamido)-N-hydroxythiazole-5-carboxamide], the figures for the 50% inhibitory concentration (IC50) in the experiment with A2780 cell line, with A2780/CP cell line and in the experiment with SKOV3 cell line were below 0.1 nM, 0.9 nM and 0.2 nM, respectively.

With `CCC(C(=O)Nc1ncc(C(=O)NO)s1)c1ccc(-c2cncnc2)cc1` (stereo not shown) [Compound 18, N-hydroxy-2-(2-(4-(pyrimidin-5-yl)phenyl)butanamido)thiazole-5-carboxamide], the concentration for half-maximal inhibition (IC50) with A2780 cell line stood at 440 nM; with A2780/CP cell line it was 140 nM; with SKOV3 cell line it was 100 nM.

In the case of `CCC(C(=O)Nc1ncc(C(=O)NO)s1)c1ccc(F)cc1` (stereo not shown) [Compound 19, 2-(2-(4-fluorophenyl)butanamido)-N-hydroxythiazole-5-carboxamide], the IC50 in the experiment on A2780 cell line was below 0.1 nM; in the experiment with A2780/CP cell line, 3 nM; in the experiment with SKOV3 cell line, 8.9 nM.

For `CCC(C(=O)Nc1ncc(C(=O)NO)s1)c1cccc(F)c1` (stereo not shown) [Compound 20, 2-(2-(3-fluorophenyl)butanamido)-N-hydroxythiazole-5-carboxamide], the IC50 in the experiment on A2780 cell line was 2.4 nM; in the experiment with A2780/CP cell line it was 100 nM; in the experiment on SKOV3 cell line, 4.3 nM.

On to `CC(C)C(C(=O)Nc1ncc(C(=O)NO)s1)c1ccc(O)cc1` (stereo not shown) [Compound 21, N-hydroxy-2-(2-(4-hydroxyphenyl)-3-methylbutanamido)thiazole-5-carboxamide], for which the IC50 in the experiment with A2780 cell line turned out to be 60 nM; with A2780/CP cell line, 40 nM; in the experiment with SKOV3 cell line, 20 nM.

On to `CCC(C(=O)Nc1ncc(C(=O)NO)s1)c1cccc(OC)c1` (stereo not shown) [Compound 22, N-hydroxy-2-(2-(3-methoxyphenyl)butanamido)thiazole-5-carboxamide], for which the IC50 was 600 nM in the experiment on A2780 cell line, 300 nM with A2780/CP cell line and 30 nM with SKOV3 cell line.

For `CCC(C(=O)Nc1ncc(C(=O)NO)s1)c1ccccc1OC` (stereo not shown) [Compound 23, N-hydroxy-2-(2-(2-methoxyphenyl)butanamido)thiazole-5-carboxamide], the values for the half-maximal inhibitory concentration (IC50) in the experiment with A2780 cell line, with A2780/CP cell line and with SKOV3 cell line were 100 nM, 500 nM and 2300 nM, respectively.

Take `COCCC(C(=O)Nc1ncc(C(=O)NO)s1)c1ccc(-c2ccccc2)cc1` (stereo not shown) [Compound 24, 2-(2-(biphenyl-4-yl)-4-methoxybutanamido)-N-hydroxythiazole-5-carboxamide]: the IC50 is 20 nM with A2780 cell line, 17 nM with A2780/CP cell line and 30 nM in the experiment with SKOV3 cell line.

Regarding `CCC(C(=O)Nc1ccc(C(=O)NO)cc1)c1ccc(Br)cc1` (stereo not shown) [Compound 25, 4-(2-(4-bromophenyl)butanamido)-N-hydroxybenzamide], the IC50 was 1.1 nM in the experiment with A2780 cell line, 20 nM in the experiment with A2780/CP cell line and 100 nM in the experiment on SKOV3 cell line.

For `CCC(C(=O)Nc1ccc(C(=O)NO)cc1)c1ccc(-c2ccccc2)cc1` (stereo not shown) [Compound 26, 4-(2-(biphenyl-4-yl)butanamido)-N-hydroxybenzamide], the values for the IC50 in the experiment with A2780 cell line, with A2780/CP cell line and with SKOV3 cell line were 0.3 nM, 1.7 nM and 1.1 nM, respectively.

As for `COCCC(C(=O)Nc1ccc(C(=O)NO)cc1)c1ccccc1` (stereo not shown) [Compound 27, N-hydroxy-4-(4-methoxy-2-phenylbutanamido)benzamide], the IC50 with A2780 cell line came out at 16 nM; in the experiment with A2780/CP cell line, 70 nM; in the experiment with SKOV3 cell line, 900 nM.
